# US11173145B2, “Compounds useful as inhibitors of indoleamine 2,3-dioxygenase and/or tryptophan dioxygenase” (Board of Regents, The University of Texas System, priority 2017, dated 2021)
# Legend:
# [1] = target: T1, IDO1 (Homo sapiens, UniProt P14902); experiment: IDO1 cell-based assay (HeLa cells, IFNgamma-induced, N-formylkynurenine/L-tryptophan by RFMS); conditions: 10 ng/mL IFNgamma, 24 hours
# T1 construct: endogenous in cells; host or cells: HeLa cells (ATCC), IFNgamma-induced
# How it was run: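 HeLa cells stimulated with 10 ng/mL IFNgamma and exposed to compound (0.5% DMSO final) for 24 h at 37 °C. Conditioned media deproteinized, then N-formylkynurenine and L-tryptophan quantified by RapidFire MS with deuterated tryptophan internal standard; IC50 by curve fitting. Viability checked by CellTiter-Glo.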
# [2] = target: T2, mouse IDO1 (Mus musculus, UniProt P28776); experiment: Mouse IDO1 cell-based assay (PANC02 cells, mouse IFNgamma-induced, N-formylkynurenine/L-tryptophan by RFMS); conditions: 30 ng/mL mouse IFNgamma, 48 hours
# T2 construct: The murine PANC02 pancreatic ductal adenocarcinoma cell line was routinely maintained in DMEM media; endogenous in cells; host or cells: PANC02 murine pancreatic ductal adenocarcinoma cells, induced with mouse IFNgamma
# Experimental: The murine PANC02 pancreatic ductal adenocarcinoma cell line was routinely maintained in DMEM media containing 10% FBS. Cells (3,000/well) were seeded onto a 384 well plate in 50 μl of media and incubated at 37° C., 5% CO2 overnight. Cell media was aspirated, fresh media containing 30 ng/mL mouse IFNgamma (Gibco Life Technologies, cat #PMC4031) was added, and cells were incubated in absence or presence of various concentrations of compounds (final 0.5% DMSO) for 48 hours at 37° C., 5% CO2. Aliquots of the cell conditioned media was removed from the cell plate, and mixed with equal volume of 200 mM ZnSO4 to precipitate media containing protein. Two volumes of acetonitrile were added by mixing, and samples were then centrifuged at 2250G for 20 minutes at 4° C. Aliquots of the supernatant were diluted 1:10 in 0.1% formic acid containing 3 μM of deuterated Tryptophan as an internal standard.
# Samples were analyzed via RFMS to quantify N-Formyl Kynurenine (AUC) and L-tryptophan (AUC). A C18 cartridge was used with mobile phases of 0.1% Formic Acid and 80% ACN/0.1% Formic Acid under isocratic conditions. Dose-response curves were analyzed using IC50 regression curve fitting (GeneData Screener). Curves were plotted as percent of control and normalized by high controls without inhibitor (100%), and low controls (0%) containing 1 μM of epacadostat. Cell viability was also assessed using the Cell Titer Glo Kit (Promega) following manufacture recommendation.
# T2 sequence (P28776 whole entry): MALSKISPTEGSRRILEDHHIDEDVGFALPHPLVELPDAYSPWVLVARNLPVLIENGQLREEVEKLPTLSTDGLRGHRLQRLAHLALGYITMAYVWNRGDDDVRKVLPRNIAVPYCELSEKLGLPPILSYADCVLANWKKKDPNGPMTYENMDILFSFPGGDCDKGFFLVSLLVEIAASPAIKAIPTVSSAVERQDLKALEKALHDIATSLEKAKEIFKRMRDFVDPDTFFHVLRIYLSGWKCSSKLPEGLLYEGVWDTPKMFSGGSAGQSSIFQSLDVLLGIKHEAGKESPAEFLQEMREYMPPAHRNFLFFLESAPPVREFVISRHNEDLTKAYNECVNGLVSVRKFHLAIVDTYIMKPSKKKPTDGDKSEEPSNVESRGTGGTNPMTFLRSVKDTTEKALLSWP
# T1 sequence (P14902 whole entry): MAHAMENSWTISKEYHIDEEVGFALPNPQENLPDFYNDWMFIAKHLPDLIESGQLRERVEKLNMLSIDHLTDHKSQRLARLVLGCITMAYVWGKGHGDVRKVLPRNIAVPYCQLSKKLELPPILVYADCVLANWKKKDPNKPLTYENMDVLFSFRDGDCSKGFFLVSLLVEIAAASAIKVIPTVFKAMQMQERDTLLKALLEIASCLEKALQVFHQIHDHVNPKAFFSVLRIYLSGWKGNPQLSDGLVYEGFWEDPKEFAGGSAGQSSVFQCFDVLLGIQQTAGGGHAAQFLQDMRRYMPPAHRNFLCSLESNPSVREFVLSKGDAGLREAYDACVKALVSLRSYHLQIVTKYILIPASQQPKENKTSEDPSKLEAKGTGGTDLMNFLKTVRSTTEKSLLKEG
SMILES,IC50 [1] [µM],IC50 [2] [µM]
"CCC(NC(=O)c1ccc(Cl)cc1)[C@H]1[C@@H]2C[C@@H](C(C(=O)OC)c3ccccc3)C[C@@H]21 (mixture of isomers) [Compound 202, methyl (S)-2-((1R,3S,5S, 6S)-6-((R)-1-(4-chlorobenzamido)propyl)bicyclo[3.1.0]hexan-3-yl)-2-phenylacetate and methyl (R)-2-((R, 3S, 5S, 6S)-6-((S)-1-(4-chlorobenzamido)propyl)bicyclo[3.1.0]hexan-3-yl)-2-phenylacetate]",0.2 to 2,0.5 to 2
"CCC(NC(=O)c1ccc(Cl)cc1)[C@H]1[C@@H]2C[C@@H](C(C(=O)OC)c3ccccc3)C[C@@H]21 (mixture of isomers) [Compound 203, methyl (S)-2-((R, 3R, 5S,6S)-6-((S)-1-(4-chlorobenzamido)propyl)bicyclo[3.1.0]hexan-3-yl)-2-phenylacetate and methyl (R)-2-((1R,3R,5S, 6S)-6-((R)-1-(4-chlorobenzamido)propyl)bicyclo[3.1.0]hexan-3-yl)-2-phenylacetate]",0.2 to 2,< 0.5
"CCC(NC(=O)c1ccc(Cl)cc1)[C@H]1[C@@H]2C[C@@H](NC(=O)c3ccccn3)C[C@@H]21 (stereo partly drawn) [Compound 117, N-((1R,3s,5S,6r)-6-(1-(4-chlorobenzamido)propyl)bicyclo[3.1.0]hexan-3-yl)picolinamide]",< 0.2,2 to 5
CCC(NC(=O)c1ccc(Cl)cc1)[C@H]1[C@@H]2C[C@@H](n3cnc4ccc(F)cc43)C[C@@H]21 (stereo partly drawn) [Compound 125],,< 0.5
"C[C@H](NC(=O)c1ccc(C#N)cc1)[C@H]1[C@@H]2C[C@@H](Oc3ncnc4ccc(F)cc34)C[C@@H]21 [Compound 130, 4-cyano-N-((R)-1-((1R,3S,5S,6r)-3-((6-fluoroquinazolin-4-yl)oxy)bicyclo[3.1.0]hexan-6-yl)ethyl)benzamide]",< 0.2,< 0.5
"C[C@@H](NC(=O)c1ccc(C#N)cc1)[C@H]1[C@@H]2C[C@@H](Oc3ncnc4ccc(F)cc34)C[C@@H]21 [Compound 131, 4-cyano-N-((S)-1-((1R,3R,5S,6r)-3-((6-fluoroquinazolin-4-yl)oxy)bicyclo[3.1.0]hexan-6-yl)ethyl)benzamide]",< 0.2,0.5 to 2
"CCC(NC(=O)c1ccc(Cl)cc1)[C@H]1[C@@H]2C[C@@H](NC(=O)c3ccc(F)cn3)C[C@@H]21 (stereo partly drawn) [Compound 144, N-((1R,3s,5S,6r)-6-(1-(4-chlorobenzamido)propyl)bicyclo[3.1.0]hexan-3-yl)-5-fluoropicolinamide]",< 0.2,0.5 to 2
"CCC(NC(=O)c1ccc(Cl)cc1)[C@H]1[C@@H]2C[C@@H](NC(=O)c3cccnc3)C[C@@H]21 (stereo partly drawn) [Compound 145, N-((1R,3s,5S,6r)-6-(1-(4-chlorobenzamido)propyl)bicyclo[3.1.0]hexan-3-yl)nicotinamide]",< 0.2,> 5
"CCC(NC(=O)c1ccc(Cl)cc1)[C@H]1[C@@H]2C[C@@H](NC(=O)c3cncc(Cl)n3)C[C@@H]21 (stereo partly drawn) [Compound 150, 6-chloro-N-((1R,3s,5S,6r)-6-(1-(4-chlorobenzamido)propyl)bicyclo[3.1.0]hexan-3-yl)pyrazine-2-carboxamide]",< 0.2,2 to 5
"CCC(NC(=O)c1ccc(Cl)cc1)[C@H]1[C@@H]2C[C@@H](n3nncc3C3CC3)C[C@@H]21 (stereo partly drawn) [Compound 153, 4-chloro-N-(1-((1R,3s,5S,6r)-3-(5-cyclopropyl-1H-1,2,3-triazol-1-yl)bicyclo[3.1.0]hexan-6-yl)propyl)benzamide]",< 0.2,< 0.5
"CCC(NC(=O)c1ccc(Cl)cc1)[C@H]1[C@@H]2C[C@@H](NC(=O)c3nccc(C(F)(F)F)c3Cl)C[C@@H]21 (stereo partly drawn) [Compound 158, 3-chloro-N-((1R,3s,5S,6r)-6-(1-(4-chlorobenzamido)propyl)bicyclo[3.1.0]hexan-3-yl)-4-(trifluoromethyl)picolinamide]",< 0.2,0.5 to 2
"CCC(NC(=O)c1ccc(Cl)cc1)[C@H]1[C@@H]2C[C@@H](N3C(=O)c4ccccc4C3=O)C[C@@H]21 (stereo partly drawn) [Compound 161, 4-chloro-N-(1-((1R,3s,5S,6r)-3-(1,3-dioxoisoindolin-2-yl)bicyclo[3.1.0]hexan-6-yl)propyl)benzamide]",< 0.2,0.5 to 2
"CCC(NC(=O)c1ccc(Cl)cc1)[C@H]1[C@@H]2C[C@@H](n3cnc4ccncc43)C[C@@H]21 (stereo partly drawn) [Compound 197, N-(1-((1R,3s,5S,6r)-3-(3H-imidazo[4,5-c]pyridin-3-yl)bicyclo[3.1.0]hexan-6-yl)propyl)-4-chlorobenzamide]",,> 5
"CC[C@@H](NC(=O)c1ccc(Cl)cc1)[C@H]1[C@@H]2C[C@@H](n3cnc4ccc(F)cc43)C[C@@H]21 [Compound 247, 4-chloro-N—((R)-1-((1R,3S,5S, 6r)-3-(6-fluoro-1H-benzo[d]imidazol-1-yl)bicyclo[3.1.0]hexan-6-yl)propyl)benzamide]",,< 0.5
"CC[C@H](NC(=O)c1ccc(Cl)cc1)[C@H]1[C@@H]2C[C@@H](n3cnc4ccc(F)cc43)C[C@@H]21 [Compound 248, 4-chloro-N—((S)-1-((1R,3S,5S,6r)-3-(6-fluoro-1H-benzo[d]imidazol-1-yl)bicyclo[3.1.0]hexan-6-yl)propyl)benzamide]",,< 0.5
"CC[C@@H](NC(=O)c1ccc(Cl)cc1)[C@H]1[C@@H]2C[C@@H](Nc3ccccc3C(=O)O)C[C@@H]21 [Compound 346, 2-(((1R,3S,5S,6r)-6-((R)-1-(4-chlorobenzamido)propyl)bicyclo[3.1.0]hexan-3-yl)amino)benzoic acid]",< 0.2,
"CC(C(=O)Nc1ccc(Cl)cc1)[C@H]1[C@@H]2C[C@@H](Oc3ccnc4ccc(F)cc34)C[C@@H]21 (stereo partly drawn) [Compound 347, N-(4-chlorophenyl)-2-((1R,3s,5S,6r)-3-((6-fluoroquinolin-4-yl)oxy)bicyclo[3.1.0]hexan-6-yl)propanamide]",< 0.2,
"CC[C@@H](NC(=O)c1ccc(Cl)cc1)[C@H]1[C@@H]2C[C@@H](n3cc(C4CC4)cn3)C[C@@H]21 [Compound 348, 4-chloro-N-((R)-1-((1R,3S,5S,6r)-3-(4-cyclopropyl-1H-pyrazol-1-yl)bicyclo[3.1.0]hexan-6-yl)propyl)benzamide]",< 0.2,
"CC[C@@H](NC(=O)Nc1ccc(Cl)c(F)c1)[C@H]1[C@@H]2C[C@@H](n3cnc4cc(F)c(F)cc43)C[C@@H]21 [Compound 349, 1-(4-chloro-3-fluorophenyl)-3-((R)-1-((1R,3S,5S,6r)-3-(5,6-difluoro-1H-benzo[d]imidazol-1-yl)bicyclo[3.1.0]hexan-6-yl)propyl)urea]",< 0.2,
"CC[C@@H](NC(=O)C1(C(F)(F)F)CC1)[C@H]1[C@@H]2C[C@@H](n3cnc4cc(F)c(F)cc43)C[C@@H]21 [Compound 352, N-((R)-1-((1R,3S,5S,6r)-3-(5,6-difluoro-1H-benzo[d]imidazol-1-yl)bicyclo[3.1.0]hexan-6-yl)propyl)-1-(trifluoromethyl)cyclopropane-1-carboxamide]",0.2 to 2,
"CC[C@@H](NC(=O)NC1COC1)[C@H]1[C@@H]2C[C@@H](n3cnc4cc(F)c(F)cc43)C[C@@H]21 [Compound 353, 1-((R)-1-((1R,3S,5S,6r)-3-(5,6-difluoro-1H-benzo[d]imidazol-1-yl)bicyclo[3.1.0]hexan-6-yl)propyl)-3-(oxetan-3-yl)urea]",> 5,
"CC[C@@H](NC(=O)N1CC(F)(F)C1)[C@H]1[C@@H]2C[C@@H](n3cnc4cc(F)c(F)cc43)C[C@@H]21 [Compound 354, N-((R)-1-((1R,3S,5S,6r)-3-(5,6-difluoro-1H-benzo[d]imidazol-1-yl)bicyclo[3.1.0]hexan-6-yl)propyl)-3,3-difluoroazetidine-1-carboxamide]",0.2 to 2,
"CC[C@@H](NC(=O)N1CCC(F)(F)CC1)[C@H]1[C@@H]2C[C@@H](n3cnc4cc(F)c(F)cc43)C[C@@H]21 [Compound 355, N-((R)-1-((1R,3S,5S,6r)-3-(5,6-difluoro-1H-benzo[d]imidazol-1-yl)bicyclo[3.1.0]hexan-6-yl)propyl)-4,4-difluoropiperidine-1-carboxamide]",< 0.2,
"CC[C@@H](NC(=O)N1CCOCC1)[C@H]1[C@@H]2C[C@@H](n3cnc4cc(F)c(F)cc43)C[C@@H]21 [Compound 356, N-((R)-1-((1R,3S,5S,6r)-3-(5,6-difluoro-1H-benzo[d]imidazol-1-yl)bicyclo[3.1.0]hexan-6-yl)propyl)morpholine-4-carboxamide]",2 to 5,
"CC[C@@H](NC(=O)NC1CC1)[C@H]1[C@@H]2C[C@@H](n3cnc4cc(F)c(F)cc43)C[C@@H]21 [Compound 357, 1-cyclopropyl-3-((R)-1-((1R,3S,5S,6r)-3-(5,6-difluoro-1H-benzo[d]imidazol-1-yl)bicyclo[3.1.0]hexan-6-yl)propyl)urea]",0.2 to 2,
